Reference: patent US20140262858A1, “PACKAGING FOR ALITRETINOIN” (RANBAXY LABORATORIES LIMITED, priority 2011, published 2014)
Values joined by “and” are separate entries in the source; they are usually repeats but may differ in a detail not shown here. Equal values may be shown once.

Legend:
[1] = Stability study of alitretinoin in vacuum-sealed pack in the absence of oxygen absorber and silica gel desiccant (HPLC impurities); type: physicochemical; settings: Initial; no oxygen absorber, no silica gel desiccant
Method: (§1) Stability studies of alitretinoin were conducted by loading alitretinoin samples at various stability conditions, for example, at 25±2° C./60±5% relative humidity (RH) and 40±2° C./75±5% RH in the absence or presence of an oxygen absorber and a silica desiccant for 1 month, 2 months, 3 months, or 6 months. The stability studies were performed on a stability incubator (for accelerated stability studies, Hotpack was used and for real time stability studies, NuAire® was used). The degradation products were identified using an Agilent® 1100 series HPLC system.
Alitretinoin was packed in a LDPE bag. The bag was twisted and tied with a plastic fastener under nitrogen. The LDPE bag was placed into a middle bag of polyester/LDPE and vacuum was applied to the middle bag and then it was heat sealed. The sealed middle bag was packed into a polyester/aluminum/polyester/LDPE bag. Vacuum was applied to this bag and then it was heat sealed. The vacuum-sealed pack was loaded on stability at stations 40±2° C. and 75±5% RH (accelerated) and 25±2° C. and 60±5% RH.

[2] = Stability study of alitretinoin at 25±2° C./60±5% RH in vacuum-sealed pack in the presence of oxygen absorber (Stabilox) and silica gel desiccant; type: physicochemical; set-up: 4-Hydroxy alitretinoin impurity / 5,6-Epoxy alitretinoin impurity / Total related substances / 4-Oxo-alitretinoin impurity: unit not given here; settings: for 4-Hydroxy alitretinoin impurity / 4-Oxo-alitretinoin impurity / 5,6-Epoxy alitretinoin impurity / Total related substances: with oxygen absorber and silica gel desiccant
Method: as §1
Alitretinoin was packed in a LDPE bag. The bag was twisted and tied with a plastic fastener under nitrogen. The LDPE bag was placed into a middle bag of polyester/LDPE along with an oxygen absorber. A vacuum was applied to the middle bag and then it was heat sealed. The sealed middle bag was packed into a polyester/aluminum/polyester/LDPE bag along with silica gel as a desiccant. Vacuum was applied to this bag and it was then heat sealed. The vacuum-sealed pack was loaded on stability at 25±2° C. and 60±5% RH.

[3] = Stability study of alitretinoin at 40±2° C./75±5% RH in vacuum-sealed pack in the presence of oxygen absorber (Stabilox) and silica gel desiccant; type: physicochemical; set-up: 4-Hydroxy alitretinoin impurity / 5,6-Epoxy alitretinoin impurity / Total related substances / 4-Oxo-alitretinoin impurity: unit not given here; settings: for 4-Oxo-alitretinoin impurity / 5,6-Epoxy alitretinoin impurity / Total related substances / 4-Hydroxy alitretinoin impurity: with oxygen absorber and silica gel desiccant
Method: as §1
Alitretinoin was packed in a LDPE bag; the bag was twisted and tied with a plastic fastener under nitrogen. It was placed into a middle bag of polyester/LDPE along with an oxygen absorber. Vacuum was applied to the middle bag and then it was heat sealed. This sealed middle bag was packed into a polyester/aluminum/polyester/LDPE bag along with silica gel as a desiccant. Vacuum was applied to this bag and then it was heat sealed. The vacuum-sealed pack was loaded on stability at 40±2° C. and 75±5% RH.

[4] = in the presence of oxygen; cited from earlier work

In the case of `CC1=C(/C=C/C(C)=C\C=C\C(C)=C\C(=O)O)C(C)(C)CCC1` [Alitretinoin, (2E,4E,6Z,8E)-3,7-dimethyl-9-(2,6,6-trimethyl-1-cyclohexenyl)-2,4,6,8-nonatraenoic acid], the Total related substances [1] is reported as 0.403 and 0.411 and 0.351, the 4-Hydroxy alitretinoin impurity ([2]; 3M/25 ± 2° C./60 ± 5% RH) is reported as 0.003 and the 4-Oxo-alitretinoin impurity ([2]; 3M/25 ± 2° C./60 ± 5% RH) is reported as 0.003 and 0.002. The “5,6-Epoxy alitretinoin impurity” value ([2]; 3M/25 ± 2° C./60 ± 5% RH) was 0.008 and 0.005, the Total related substances ([2]; 3M/25 ± 2° C./60 ± 5% RH) was 0.198 and 0.195 and 0.179 and the 4-Hydroxy alitretinoin impurity ([2]; 6M/25 ± 2° C./60 ± 5% RH) was 0.002 and 0.003. For the same compound, the 4-Oxo-alitretinoin impurity ([2]; 6M/25 ± 2° C./60 ± 5% RH) was 0.004 and 0.003, the “5,6-Epoxy alitretinoin impurity” value ([2]; 6M/25 ± 2° C./60 ± 5% RH) was 0.006 and 0.008 and 0.005 and the Total related substances ([2]; 6M/25 ± 2° C./60 ± 5% RH) was 0.183 and 0.193 and 0.167. For the same compound, the “Change in oxidative impurities on storage” value ([2]; 25±2° C./60±5% RH (Table 2), in the presence of an oxygen absorber and a silica gel desiccant) was “no increase in oxidative impurities”, the 4-Hydroxy alitretinoin impurity ([2]; Initial) was 0.002 and the 4-Oxo-alitretinoin impurity ([2]; Initial) was 0.002 and 0.003. The “5,6-Epoxy alitretinoin impurity” value ([2]; Initial) was 0.006 and 0.009, the Total related substances ([2]; Initial) was 0.165 and 0.189 and 0.173 and the 4-Oxo-alitretinoin impurity ([3]; 1M/40 ± 2° C./75 ± 5% RH) was 0.004 and 0.003. The “5,6-Epoxy alitretinoin impurity” value ([3]; 1M/40 ± 2° C./75 ± 5% RH) was 0.008 and 0.006, the Total related substances ([3]; 1M/40 ± 2° C./75 ± 5% RH) was 0.173 and 0.182 and 0.160 and the 4-Hydroxy alitretinoin impurity ([3]; 2M/40 ± 2° C./75 ± 5% RH) was 0.003 and 0.002 and 0.004. For the same compound, the 4-Oxo-alitretinoin impurity ([3]; 2M/40 ± 2° C./75 ± 5% RH) was 0.003 and 0.002, the “5,6-Epoxy alitretinoin impurity” value ([3]; 2M/40 ± 2° C./75 ± 5% RH) was 0.010 and 0.008 and 0.007 and the Total related substances ([3]; 2M/40 ± 2° C./75 ± 5% RH) was 0.191 and 0.192 and 0.180. For the same compound, the 4-Hydroxy alitretinoin impurity ([3]; 3M/40 ± 2° C./75 ± 5% RH) was 0.003 and 0.002, the 4-Oxo-alitretinoin impurity ([3]; 3M/40 ± 2° C./75 ± 5% RH) was 0.003 and 0.004 and the “5,6-Epoxy alitretinoin impurity” value ([3]; 3M/40 ± 2° C./75 ± 5% RH) was 0.008 and 0.010 and 0.006. For the same compound, the Total related substances ([3]; 3M/40 ± 2° C./75 ± 5% RH) was 0.192 and 0.205 and 0.177, the 4-Hydroxy alitretinoin impurity ([3]; 6M/40 ± 2° C./75 ± 5% RH) was 0.002 and the 4-Oxo-alitretinoin impurity ([3]; 6M/40 ± 2° C./75 ± 5% RH) was 0.003 and 0.004. The “5,6-Epoxy alitretinoin impurity” value ([3]; 6M/40 ± 2° C./75 ± 5% RH) was 0.006 and 0.007, the Total related substances ([3]; 6M/40 ± 2° C./75 ± 5% RH) was 0.175 and 0.188 and 0.167 and the “Change in oxidative impurities on storage” value ([3]; 40±2° C./75±5% RH (Table 3), in the presence of an oxygen absorber and a silica gel desiccant) was “no increase in oxidative impurities”. For the same compound, the 4-Hydroxy alitretinoin impurity ([3]; Initial) was 0.002, the 4-Oxo-alitretinoin impurity ([3]; Initial) was 0.002 and 0.003 and the “5,6-Epoxy alitretinoin impurity” value ([3]; Initial) was 0.006 and 0.009. For the same compound, the Total related substances ([3]; Initial) was 0.165 and 0.189 and 0.173 and the Decomposition [4] was “decomposition was extensive”.
